Test: Androgen antagonistic activity as inhibitory concentration against testosterone-induced SC-3 cell proliferation

IC50	SMILES
1.2 µM	CCC(CC)(c1ccc(NCC(=O)C(C)(C)C)c(C)c1)c1ccc(OCC(=O)C(C)(C)C)c(C)c1
0.82 µM	CCC(CC)(c1ccc(NCCC(C)(C)O)c(C)c1)c1ccc(OCC(=O)C(C)(C)C)c(C)c1 [1-(4-{1-Ethyl-1-[4-(3-hydroxy-3-methyl-butylamino)-3-methyl-phenyl]-propyl}-2-methyl-phenoxy)-3,3-dimethyl-butan-2-one]
1 µM	CCC(CC)(c1ccc(NCC(O)C(C)(C)C)c(C)c1)c1ccc(NCC(O)C(C)(C)C)c(C)c1 (centres undefined)
3.5 µM	CCC(CC)(c1ccc(O)c(C)c1)c1ccc(NCC(=O)C(C)(C)C)c(C)c1
1 µM	CCC(CC)(c1ccc(NCC(=O)C(C)(C)C)c(C)c1)c1ccc(NCC(=O)C(C)(C)C)c(C)c1
6.8 µM	CCC(CC)(c1ccc(NCCC(C)(C)O)c(C)c1)c1ccc(NCCC(C)(C)O)c(C)c1 [4-(4-{1-Ethyl-1-[4-(3-hydroxy-3-methyl-butylamino)-3-methyl-phenyl]-propyl}-2-methyl-phenylamino)-2-methyl-butan-2-ol]
1.9 µM	CCC(CC)(c1ccc(OCC(=O)C(C)(C)C)c(C)c1)c1ccc(OCC(=O)C(C)(C)C)c(C)c1 [LG190155]

SMILES	IC50
CCC(CC)(c1ccc(OC[C@H](O)CO)c(C)c1)c1ccc(OC[C@H](O)C(C)(C)C)c(C)c1 [(R)-3-(4-(3-(4-((R)-2-hydroxy-3,3-dimethylbutoxy)-3-methylphenyl)pentan-3-yl)-2-methylphenoxy)propane-1,2-diol]	0.019 µM
CCC(CC)(c1ccc(NCC(O)CO)c(C)c1)c1ccc(OCC(O)C(C)(C)C)c(C)c1 (centres undefined) [3-(4-{1-Ethyl-1-[4-(2-hydroxy-3,3-dimethyl-butoxy)-3-methyl-phenyl]-propyl}-2-methyl-phenylamino)-propane-1,2-diol]	0.009 µM
